# Reference: ChEMBL document CHEMBL1126232, “3-oxagranatane (3-oxa-9-azabicyclo[3.3.1]nonane) derivatives as highly potent serotonin 5-Ht3 receptor antagonists” (Bioorg Med Chem Lett, 1992)
# Tests used:
# Rattus norvegicus = organism: Rattus norvegicus; experiment: animal or person; assay type: functional; details: iv, read-out: ID50 (the source's name)
# Description: Antagonistic activity towards serotonin 5-HT3 receptor was evaluated by inhibition of 5-HT evoked reflexes in rat on intravenous administration
# [1] = pKa value was determined; assay type: physicochemical
SMILES,ED50 (Rattus norvegicus) [µg/kg],pKa [1]
COc1ccccc1NC(=O)NC1CC2COCC(C1)N2C (stereo not drawn),1.1,
CN1C2COCC1CC(NC(=O)c1nn(C)c3ccccc13)C2 (stereo not drawn),0.16,
CN1C2CCC1CC(NC(=O)N1CC(C)(C)c3ccccc31)C2 (stereo not drawn),0.7,9.4
COc1ccccc1NC(=O)NC1CC2CCCC(C1)N2C (stereo not drawn),7.5,
CN1C2CCC1CC(NC(=O)N1CCc3ccccc31)C2 (stereo not drawn),1.4,
COc1cc(N)c(Cl)cc1C(=O)NC1CC2CCC(C1)N2C (stereo not drawn),0.8,
COc1cc(N)c(Cl)cc1C(=O)NC1CC2COCC(C1)N2C (stereo not drawn),0.09,
CN1C2COCC1CC(NC(=O)N1CC(C)(C)c3ccccc31)C2 (stereo not drawn),0.13,7.1
COc1ccccc1NC(=O)NC1CC2CCC(C1)N2C (stereo not drawn),2.5,
COc1cc(N)c(Cl)cc1C(=O)NC1CC2CCCC(C1)N2C (stereo not drawn),0.4,
CN1C2CCCC1CC(NC(=O)c1nn(C)c3ccccc13)C2 (stereo not drawn) [GRANISETRON],,9.1
